Measurements published in patent EP4692072A1, “PHOTOCHROMIC COMPOUND, PROPARGYL ALCOHOL COMPOUND, CURABLE COMPOSITION, OPTICAL ARTICLE, LENS, AND SPECTACLES” (TOKUYAMA CORPORATION, priority 2023, dated 2024).

What was measured:
[1] = Photochromic properties of photochromic laminate (plastic lens) prepared by coating method; type: physicochemical; details: 40 µm photochromic layer on thiourethane lens, 0.25 mmol compound per 100 g monomers, after color development
Outline: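 Compound at 0.25 mmol per 100 g methacrylate monomers in a 40 µm spin-coated layer on a primed 2 mm thiourethane lens, photocured under N2, then heated 110°C 1 h. Spectrophotometer read-out after 300 s irradiation at 23°C: λmax, colour density, fading half-life; residual rate after 120 h xenon ageing.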

[2] = Accelerated deterioration (xenon weather meter X25, 120 hours) of photochromic laminate prepared by coating method; type: physicochemical; details: 0.25 mmol per 100 g monomers, A120/A0×100 after 120 hours xenon weather meter
Outline: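 Photochromic compound at 0.25 mmol per 100 g of methacrylate monomers, spin-coated as a 40 µm layer on a primed 1.60-index thiourethane lens, then light-cured and heated at 110°C for 1 h. Color optical density at λmax (23°C, 300 s irradiation) measured before (A0) and after 120 h xenon exposure (A120). Residual rate = A120/A0×100.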

Work on `CCCCOCCC1(CCOCCCC)c2ccccc2-c2c1c1c(c3cc(OC)c(NC(=O)c4ccccc4)cc23)OC(c2ccc(N(C)c3ccccc3)cc2)(c2ccc(OC)c(F)c2)C=C1` (stereo not shown) [Example 53] yielded a Maximum absorption wavelength [1] of 500 nm, a Maximum absorption wavelength ([1]; listed as Formula (95)) of 605 nm and a Residual rate [2] of 58%. The Residual rate ([2]; listed as Formula (95)) was 60%.

Compound `COCCN(c1ccccc1)c1ccc(C2(c3ccc4c(c3)OCCO4)C=Cc3c4c(c5cc6c(cc5c3O2)SC(C)(C)O6)-c2ccccc2C42CCC3(CCCCC3)CC2)cc1` (stereo not shown) [Example 14] has a Maximum absorption wavelength [1] of 492 nm, a Maximum absorption wavelength ([1]; listed as Formula (72)) of 586 nm and a Residual rate [2] of 63%.

`CCN(c1ccc(OC)cc1)c1ccc(C2(c3ccc(OC)cc3)C=Cc3c4c(c5cc(-c6ccc(N7CCOCC7)cc6)c(OC)cc5c3O2)-c2ccccc2C4(C)C)cc1` (stereo not shown) [Example 25] gave a Maximum absorption wavelength [1] of 505 nm, a Maximum absorption wavelength ([1]; listed as Formula (88)) of 605 nm and a Residual rate [2] of 63%.
